{
  "source": "paper PMC5218480",
  "about": "(PLoS ONE, 2017)",
  "system": "MV-4-11 cells",
  "experiment": "Gene expression microarray analysis (Affymetrix PrimeView) and GSEA",
  "assay_type": "cell-based, human",
  "design": "RFU PODN (11730768_x_at) / Fold change /veh PODN (11730768_x_at) / RFU LINC00158 (11744669_a_at) / Fold change /veh LINC00158 (11744669_a_at) / RFU DUSP10 (11751237_a_at) / Fold change /veh DUSP10 (11751237_a_at) / RFU ID3 (11757404_x_at) / Fold change /veh ID3 (11757404_x_at) / RFU PLEKHG5 (11737974_s_at) / Fold change /veh PLEKHG5 (11737974_s_at) / RFU LRRC4B (11730491_at) / Fold change /veh LRRC4B (11730491_at) / RFU GIMAP4 (11747438_a_at) / Fold change /veh GIMAP4 (11747438_a_at) / RFU KRT8 (11758183_x_at) / Fold change /veh KRT8 (11758183_x_at) / RFU CNN1 (11734310_a_at) / Fold change /veh CNN1 (11734310_a_at) / RFU VPS37D (11726825_at) / Fold change /veh VPS37D (11726825_at) / RFU C10orf10 (11716522_x_at) / Fold change /veh C10orf10 (11716522_x_at) / RFU KIR2DL2 /// KIR2DL4 /// KIR2DL5A /// KIR2DL5B /// KIR2DS1 /// KIR2DS2 /// KIR2DS3 /// KIR2DS4 /// KIR3DL3 /// KIR3DL3 /// KIR3DS1 (11738374_at) / Fold change /veh KIR2DL2 /// KIR2DL4 /// KIR2DL5A /// KIR2DL5B /// KIR2DS1 /// KIR2DS2 /// KIR2DS3 /// KIR2DS4 /// KIR3DL3 /// KIR3DL3 /// KIR3DS1 (11738374_at) / RFU C1QL1 (11718748_at) / Fold change /veh C1QL1 (11718748_at) / RFU TMPRSS4 (11747572_a_at) / Fold change /veh TMPRSS4 (11747572_a_at) / RFU HAMP (11756126_x_at) / Fold change /veh HAMP (11756126_x_at) / RFU RNFT2 (11725882_a_at) / Fold change /veh RNFT2 (11725882_a_at) / RFU NR4A2 (11747474_a_at) / Fold change /veh NR4A2 (11747474_a_at) / RFU ABCC12 (11746883_a_at) / Fold change /veh ABCC12 (11746883_a_at) / RFU TMEM136 (11760407_x_at) / Fold change /veh TMEM136 (11760407_x_at) / RFU CLDN22 /// WWC2 (11732394_at) / Fold change /veh CLDN22 /// WWC2 (11732394_at) / RFU HLA-DPB1 (11760878_x_at) / Fold change /veh HLA-DPB1 (11760878_x_at) / RFU SPINT1 (11716480_a_at) / Fold change /veh SPINT1 (11716480_a_at) / RFU GAP43 (11754022_s_at) / Fold change /veh GAP43 (11754022_s_at) / RFU A4GNT (11735810_at) / Fold change /veh A4GNT (11735810_at) / RFU PRB3 (11715151_x_at) / Fold change /veh PRB3 (11715151_x_at) / RFU TUBB4B (11761932_at) / Fold change /veh TUBB4B (11761932_at) / RFU CAPN14 (11732068_a_at) / Fold change /veh CAPN14 (11732068_a_at) / RFU TMCC2 (11721928_a_at) / Fold change /veh TMCC2 (11721928_a_at) / RFU IRGQ (11745062_a_at) / Fold change /veh IRGQ (11745062_a_at) / RFU FAM174B (11720279_a_at) / Fold change /veh FAM174B (11720279_a_at) / RFU TMPRSS4 (11748680_a_at) / Fold change /veh TMPRSS4 (11748680_a_at) / RFU FAM212B (11763350_a_at) / Fold change /veh FAM212B (11763350_a_at) / RFU PLEKHG5 (11743358_a_at) / Fold change /veh PLEKHG5 (11743358_a_at) / RFU ZSCAN30 (11745921_a_at) / Fold change /veh ZSCAN30 (11745921_a_at) / RFU CMKLR1 (11741424_a_at) / Fold change /veh CMKLR1 (11741424_a_at) / RFU LOC101060620 /// MAPK8IP1 (11723275_at) / Fold change /veh LOC101060620 /// MAPK8IP1 (11723275_at) / RFU SPTSSB (11747773_x_at) / Fold change /veh SPTSSB (11747773_x_at) / RFU PRSS12 (11739890_at) / Fold change /veh PRSS12 (11739890_at) / RFU BIN1 (11741810_x_at) / Fold change /veh BIN1 (11741810_x_at) / RFU WNT11 (11732464_a_at) / Fold change /veh WNT11 (11732464_a_at) / RFU C10orf10 (11716521_a_at) / Fold change /veh C10orf10 (11716521_a_at) / RFU C5orf56 (11738089_at) / Fold change /veh C5orf56 (11738089_at) / RFU CYB561 (11721691_x_at) / Fold change /veh CYB561 (11721691_x_at) / RFU ANKRD19P (11752326_a_at) / Fold change /veh ANKRD19P (11752326_a_at) / RFU OR2T12 /// OR2T33 /// OR2T8 (11738714_s_at) / Fold change /veh OR2T12 /// OR2T33 /// OR2T8 (11738714_s_at) / RFU VCAN (11748164_a_at) / Fold change /veh VCAN (11748164_a_at) / RFU JSRP1 (11732532_at) / Fold change /veh JSRP1 (11732532_at) / RFU KRTAP10-11 (11738290_x_at) / Fold change /veh KRTAP10-11 (11738290_x_at) / RFU MYO3A (11730013_a_at) / Fold change /veh MYO3A (11730013_a_at) / RFU EBF3 (11725865_a_at) / Fold change /veh EBF3 (11725865_a_at) / RFU CAMK2N1 (11719241_x_at) / Fold change /veh CAMK2N1 (11719241_x_at) / RFU C5orf56 (11738088_a_at) / Fold change /veh C5orf56 (11738088_a_at) / RFU OLFML3 (11715873_a_at) / Fold change /veh OLFML3 (11715873_a_at) / RFU LOC100653217 /// NTM (11731650_a_at) / Fold change /veh LOC100653217 /// NTM (11731650_a_at) / RFU MAPK11 (11762145_a_at) / Fold change /veh MAPK11 (11762145_a_at) / RFU FIZ1 (11724087_x_at) / Fold change /veh FIZ1 (11724087_x_at) / RFU OASL (11726364_x_at) / Fold change /veh OASL (11726364_x_at) / RFU SOX15 (11748057_x_at) / Fold change /veh SOX15 (11748057_x_at) / RFU CD79A (11719716_a_at) / Fold change /veh CD79A (11719716_a_at) / RFU HIST1H1D (11736915_at) / Fold change /veh HIST1H1D (11736915_at) / RFU CASKIN2 (11723855_a_at) / Fold change /veh CASKIN2 (11723855_a_at) / RFU LOC730098 (11760151_x_at) / Fold change /veh LOC730098 (11760151_x_at) / RFU OR4N2 (11742367_at) / Fold change /veh OR4N2 (11742367_at) / RFU PRRT2 (11749266_a_at) / Fold change /veh PRRT2 (11749266_a_at) / RFU SNX32 (11753110_a_at) / Fold change /veh SNX32 (11753110_a_at) / RFU CDHR5 (11726645_a_at) / Fold change /veh CDHR5 (11726645_a_at) / RFU RCAN1 (11760418_a_at) / Fold change /veh RCAN1 (11760418_a_at) / RFU FAM167A (11723789_a_at) / Fold change /veh FAM167A (11723789_a_at) / RFU FAM26E (11764081_at) / Fold change /veh FAM26E (11764081_at) / RFU ISYNA1 (11749810_s_at) / Fold change /veh ISYNA1 (11749810_s_at) / RFU ACY1 (11761880_at) / Fold change /veh ACY1 (11761880_at) / RFU 11764098_at / Fold change /veh 11764098_at / RFU SAMD14 (11745864_x_at) / Fold change /veh SAMD14 (11745864_x_at) / RFU NPB (11741838_a_at) / Fold change /veh NPB (11741838_a_at) / RFU TMPRSS6 (11731388_a_at) / Fold change /veh TMPRSS6 (11731388_a_at) / RFU KRTAP10-2 (11738614_at) / Fold change /veh KRTAP10-2 (11738614_at) / RFU ARHGAP8 /// PRR5-ARHGAP8 (11727945_x_at) / Fold change /veh ARHGAP8 /// PRR5-ARHGAP8 (11727945_x_at) / RFU KRTAP5-7 /// NADSYN1 (11734609_at) / Fold change /veh KRTAP5-7 /// NADSYN1 (11734609_at) / RFU RASL12 (11751679_a_at) / Fold change /veh RASL12 (11751679_a_at) / RFU CDKN2B (11736163_a_at) / Fold change /veh CDKN2B (11736163_a_at) / RFU PRF1 (11729649_at) / Fold change /veh PRF1 (11729649_at) / RFU, ZNF638 /// ZNF638-IT1 / Fold change vs veh, ZNF638 /// ZNF638-IT1 / RFU, PANK3 / Fold change vs veh, PANK3 / RFU, SH3YL1 / Fold change vs veh, SH3YL1 / RFU, ZEB2 / Fold change vs veh, ZEB2 / RFU, NRIP1 / Fold change vs veh, NRIP1 / RFU, PTTG1IP / Fold change vs veh, PTTG1IP / RFU, CAPN2 / Fold change vs veh, CAPN2 / RFU, MED14 / Fold change vs veh, MED14 / RFU, SNORA58 / Fold change vs veh, SNORA58 / RFU, C1orf63 / Fold change vs veh, C1orf63 / RFU, LRRFIP1 / Fold change vs veh, LRRFIP1 / RFU, NDUFAF7 / Fold change vs veh, NDUFAF7 / RFU, SLC12A2 / Fold change vs veh, SLC12A2 / RFU, IBTK / Fold change vs veh, IBTK / RFU, ESF1 / Fold change vs veh, ESF1 / Fold change vs veh, TMEM50B / RFU, TAOK1 / Fold change vs veh, TAOK1 / RFU, ACBD3 / Fold change vs veh, ACBD3 / RFU, TMA16 / Fold change vs veh, TMA16 / RFU, RWDD3 / Fold change vs veh, RWDD3 / RFU, BCAT1 / Fold change vs veh, BCAT1 / RFU, EDEM3 / Fold change vs veh, EDEM3 / RFU, TMEM33 / Fold change vs veh, TMEM33 / RFU, WDR75 / Fold change vs veh, WDR75 / RFU, AHCTF1 / Fold change vs veh, AHCTF1 / RFU, TFRC / Fold change vs veh, TFRC / RFU, ZDHHC17 / Fold change vs veh, ZDHHC17 / RFU, NOM1 / Fold change vs veh, NOM1 / RFU, ARL8B / Fold change vs veh, ARL8B / RFU, ZBTB11 / Fold change vs veh, ZBTB11 / RFU, TAMM41 / Fold change vs veh, TAMM41 / RFU, KIAA1704 /// LOC100996395 / Fold change vs veh, KIAA1704 /// LOC100996395 / RFU, ING1 / Fold change vs veh, ING1 / RFU, TRMT61B / Fold change vs veh, TRMT61B / RFU, FUBP3 / Fold change vs veh, FUBP3 / RFU, TP53 / Fold change vs veh, TP53 / RFU, TNKS2 / Fold change vs veh, TNKS2 / RFU, ZFP14 / Fold change vs veh, ZFP14 / RFU, ACTR2 / Fold change vs veh, ACTR2 / RFU, PPP3R1 / Fold change vs veh, PPP3R1 / RFU, PIK3R1 / Fold change vs veh, PIK3R1 / RFU, HNRNPA1 / Fold change vs veh, HNRNPA1 / RFU, RNF170 / Fold change vs veh, RNF170 / RFU, ZNF28 / Fold change vs veh, ZNF28 / RFU, RNGTT / Fold change vs veh, RNGTT / RFU, OGT / Fold change vs veh, OGT / RFU, BRD1 / Fold change vs veh, BRD1 / RFU, MARS / Fold change vs veh, MARS / RFU, ZNF655 / Fold change vs veh, ZNF655 / RFU, FAHD1 / Fold change vs veh, FAHD1 / RFU, BDP1 / Fold change vs veh, BDP1 / RFU, LRRCC1 / Fold change vs veh, LRRCC1 / RFU, ARID1A / Fold change vs veh, ARID1A / RFU, ZNF146 / Fold change vs veh, ZNF146 / RFU, ZNF330 / Fold change vs veh, ZNF330 / RFU, GPN3 / Fold change vs veh, GPN3 / RFU, C9orf123 / Fold change vs veh, C9orf123 / RFU, N4BP2L2 / Fold change vs veh, N4BP2L2 / RFU, ARFIP1 / Fold change vs veh, ARFIP1 / RFU, FAM179B / Fold change vs veh, FAM179B / RFU, BCL10 / Fold change vs veh, BCL10 / RFU, UHRF1BP1L / Fold change vs veh, UHRF1BP1L / RFU, BET1 / Fold change vs veh, BET1 / RFU, CNOT2 / Fold change vs veh, CNOT2 / RFU, ZNF268 / Fold change vs veh, ZNF268 / Fold change vs veh, ZNF507 / RFU, DGCR2 / Fold change vs veh, DGCR2 / RFU, WDSUB1 / Fold change vs veh, WDSUB1 / Fold change vs veh, HSP90B1 /// MIR3652 / RFU, ADSS / Fold change vs veh, ADSS / RFU, GK / Fold change vs veh, GK / RFU, ZNF148 / Fold change vs veh, ZNF148 / RFU, TAF9 / Fold change vs veh, TAF9 / RFU, SLC1A5 / Fold change vs veh, SLC1A5 / RFU, SLMO2 / Fold change vs veh, SLMO2 / RFU, ABCC4 / Fold change vs veh, ABCC4 / RFU, LOC101060439 /// RAP1B / Fold change vs veh, LOC101060439 /// RAP1B / RFU, RFX7 / Fold change vs veh, RFX7 / RFU, GTPBP10 / Fold change vs veh, GTPBP10 / RFU, CNEP1R1 / Fold change vs veh, CNEP1R1 / RFU, BIVM-ERCC5 /// ERCC5 / Fold change vs veh, BIVM-ERCC5 /// ERCC5 / RFU, ILF3 / Fold change vs veh, ILF3 / RFU 11762660_at / Fold change /veh 11762660_at / RFU VCAN (11757783_s_at) / Fold change /veh VCAN (11757783_s_at) / RFU DDX43 (11728927_at) / Fold change /veh DDX43 (11728927_at) / RFU KRT8 (11758188_x_at) / Fold change /veh KRT8 (11758188_x_at) / RFU NKD1 (11759106_at) / Fold change /veh NKD1 (11759106_at) / RFU SRD5A1 (11742802_a_at) / Fold change /veh SRD5A1 (11742802_a_at) / RFU TPSAB1 /// TPSB2 (11721975_s_at) / Fold change /veh TPSAB1 /// TPSB2 (11721975_s_at) / RFU GSTM3 (11746129_a_at) / Fold change /veh GSTM3 (11746129_a_at) / RFU IL23R (11737362_x_at) / Fold change /veh IL23R (11737362_x_at) / RFU TMEM51 (11727254_a_at) / Fold change /veh TMEM51 (11727254_a_at) / RFU PIWIL2 (11732686_x_at) / Fold change /veh PIWIL2 (11732686_x_at) / RFU ORM1 (11744905_x_at) / Fold change /veh ORM1 (11744905_x_at) / RFU CCDC152 (11743942_at) / Fold change /veh CCDC152 (11743942_at) / RFU ECM1 (11717891_a_at) / Fold change /veh ECM1 (11717891_a_at) / RFU IL23R (11748794_a_at) / Fold change /veh IL23R (11748794_a_at) / RFU TNFAIP8L3 (11732012_x_at) / Fold change /veh TNFAIP8L3 (11732012_x_at) / RFU MBOAT4 (11741988_at) / Fold change /veh MBOAT4 (11741988_at) / RFU 11764193_at / Fold change /veh 11764193_at / RFU TMEM53 (11763286_at) / Fold change /veh TMEM53 (11763286_at) / RFU MAGEB2 (11727129_at) / Fold change /veh MAGEB2 (11727129_at) / RFU TMEM200A (11744735_a_at) / Fold change /veh TMEM200A (11744735_a_at) / RFU CCDC152 (11751479_a_at) / Fold change /veh CCDC152 (11751479_a_at) / RFU FAM211A (11726209_a_at) / Fold change /veh FAM211A (11726209_a_at) / RFU RGS16 (11746705_a_at) / Fold change /veh RGS16 (11746705_a_at) / RFU VCAN (11755009_s_at) / Fold change /veh VCAN (11755009_s_at) / RFU RHOB (11743442_s_at) / Fold change /veh RHOB (11743442_s_at) / RFU RGS16 (11720943_a_at) / Fold change /veh RGS16 (11720943_a_at) / RFU RGS16 (11720944_at) / Fold change /veh RGS16 (11720944_at) / RFU, VPS4B / Fold change vs veh, VPS4B / RFU, CREB1 / Fold change vs veh, CREB1 / RFU, DNAJC13 / Fold change vs veh, DNAJC13 / RFU, GNAQ / Fold change vs veh, GNAQ / RFU, CDK5R1 / Fold change vs veh, CDK5R1 / RFU, ZRANB3 / Fold change vs veh, ZRANB3 / RFU, CUL4A / Fold change vs veh, CUL4A / RFU, CCNY / Fold change vs veh, CCNY / RFU, UFL1 / Fold change vs veh, UFL1 / RFU, COG3 / Fold change vs veh, COG3 / RFU, DIAPH2 / Fold change vs veh, DIAPH2 / RFU, SKA2 / Fold change vs veh, SKA2 / RFU, AFF3 / Fold change vs veh, AFF3 / RFU, LMF1 / Fold change vs veh, LMF1 / RFU, IPO11 / Fold change vs veh, IPO11 / RFU, DFFB / Fold change vs veh, DFFB / RFU, FOXP1 / Fold change vs veh, FOXP1 / RFU, CARD8 / Fold change vs veh, CARD8 / RFU, STRN3 / Fold change vs veh, STRN3 / RFU, ADK / Fold change vs veh, ADK / RFU, RASSF2 / Fold change vs veh, RASSF2 / RFU, WIPF1 / Fold change vs veh, WIPF1 / RFU, LARP1B / Fold change vs veh, LARP1B / RFU, RASA1 / Fold change vs veh, RASA1 / RFU, RB1 / Fold change vs veh, RB1 / RFU, PPFIA1 / Fold change vs veh, PPFIA1 / RFU, MAT2A / Fold change vs veh, MAT2A / RFU, CCT5 / Fold change vs veh, CCT5 / RFU, WDR92 / Fold change vs veh, WDR92 / RFU, CUX1 / Fold change vs veh, CUX1 / RFU, TTC7A / Fold change vs veh, TTC7A / RFU, TMEM135 / Fold change vs veh, TMEM135 / RFU, DEPTOR / Fold change vs veh, DEPTOR / RFU, CPM / Fold change vs veh, CPM / RFU, DNAJB6 / Fold change vs veh, DNAJB6 / RFU, CACNA2D3 / Fold change vs veh, CACNA2D3 / RFU, DTX4 / Fold change vs veh, DTX4 / RFU, TFCP2 / Fold change vs veh, TFCP2 / RFU, GMCL1 /// GMCL1P1 / Fold change vs veh, GMCL1 /// GMCL1P1 / RFU, AEBP2 / Fold change vs veh, AEBP2 / RFU, SNHG1 /// SNORD22 /// SNORD25 /// SNORD26 /// SNORD27 /// SNORD28 /// SNORD29 /// SNORD31 / Fold change vs veh, SNHG1 /// SNORD22 /// SNORD25 /// SNORD26 /// SNORD27 /// SNORD28 /// SNORD29 /// SNORD31 / Fold change (Aza/veh), C12orf56 (ProbeSet 11735607_a_at) / Fold change (ACY-1035/veh), C12orf56 (ProbeSet 11735607_a_at) / Fold change (Aza/veh), FGFR1OP (ProbeSet 11751329_s_at) / Fold change (ACY-1035/veh), FGFR1OP (ProbeSet 11751329_s_at) / Fold change (Aza/veh), VPS36 (ProbeSet 11739960_a_at) / Fold change (ACY-1035/veh), VPS36 (ProbeSet 11739960_a_at) / RFU SYPL1 (11715823_x_at) / Fold change /veh SYPL1 (11715823_x_at) / RFU IGFBP7 (11715501_s_at) / Fold change /veh IGFBP7 (11715501_s_at) / RFU REEP3 (11722064_at) / Fold change /veh REEP3 (11722064_at) / RFU IGLL1 (11728026_x_at) / Fold change /veh IGLL1 (11728026_x_at): dose or concentration left out as unconfirmed",
  "conditions": "ProbeSet 11718977_a_at; LIST B",
  "data": [
    {"smiles": "Nc1ncn([C@@H]2O[C@H](CO)[C@@H](O)[C@H]2O)c(=O)n1", "note": "[azacitidine]", "values": [
      {"measurement": "Fold change vs veh, CAPN2", "value": 0.92}
    ]}
  ]
}
